Assay [1] concerns HeLa. Briefly: Cytotoxicity against human HeLa cells assessed as reduction in cell viability at 1.57 to 12.5 uM incubated for 72 hrs by SRB assay. The format is functional, cell-based. For orientation: In SRB staining, fixed cells bind dye roughly in proportion to their protein.
The subject of assay [2] is HeLa. Briefly: Cytotoxicity against human HeLa cells assessed as reduction in cell viability at 1.57 to 12.5 uM in presence of 1 mM NAC incubated for 72 hrs by SRB assay. The format is functional, cell-based.
Assay [3] in a line: Thiol reactivity in DMSO-d6 solution at 0.05 mmol in presence of beta-mercaptoethanol by 1H NMR Michael acceptor assay.
Assay [4] is described as follows: Thiol reactivity in DMSO-d6 solution assessed as formation of 1,6-O,O-diacetyl-13-(2-hydroxyethylthiol) britannilactone at 0.05 mmol in presence of beta-mercaptoethanol by 1H NMR Michael acceptor assay.
Assay [5] is described as follows: Thiol reactivity in DMSO-d6 solution assessed as formation of 1-O-acetyl-6-O-benzoyl-13-(2-hydroxyethylthiol) britannilactone at 0.05 mmol in presence of beta-mercaptoethanol by 1H NMR Michael acceptor assay.
Assay [6] relates to HeLa. Description: Induction of apoptosis in human HeLa cells assessed as early apoptotic cells levels at 3 uM incubated for 72 hrs by annexin V-FITC and propidium iodide staining based flow cytometry (reference value: 1.4%). Type of assay: functional. On the technique in general: Flow cytometry measures light scatter and fluorescence of single cells or particles in a stream.

Assay [7] has as its system HeLa. Description: Induction of apoptosis in human HeLa cells assessed as late apoptotic cells levels at 3 uM incubated for 72 hrs by annexin V-FITC and propidium iodide staining based flow cytometry (reference value: 2.8%). Type of assay: functional.
Assay [8] concerns HeLa. Description: Induction of apoptosis in human HeLa cells assessed as necrotic cells levels at 3 uM incubated for 72 hrs by annexin V-FITC and propidium iodide staining based flow cytometry (reference value: 0.2%). Type of assay: functional.
Assay [9] has as its system HeLa. Description: Induction of apoptosis in human HeLa cells assessed as increase in cleaved caspase-3 levels at 3 to 12 uM incubated for 48 hrs by Western blotting method. Type of assay: functional, cell-based. A general note: Immunoblotting shows a protein as a band on a membrane.
The test system of assay [10] is HeLa. Description: Induction of cell cycle arrest in human HeLa cells assessed as accumulation at G0/G1 phase at 5 uM incubated for 24 hrs by propidium iodide staining based flow cytometry (reference value: 31.1%). Type of assay: functional.
In assay [11] the test system is HeLa. Briefly: Induction of cell cycle arrest in human HeLa cells assessed as accumulation at S pahse at 5 uM incubated for 24 hrs by propidium iodide staining based flow cytometry (reference value: 40.5%). The format is functional.
Assay [12] deals with HeLa. Briefly: Induction of cell cycle arrest in human HeLa cells assessed as accumulation at G2/M pahse at 5 uM incubated for 24 hrs by propidium iodide staining based flow cytometry (reference value: 28.4%). Type of assay: functional.
Assay [13] deals with HeLa. Briefly: Induction of cell cycle arrest in human HeLa cells assessed as accumulation at G0/G1 phase at 10 uM incubated for 24 hrs by propidium iodide staining based flow cytometry (reference value: 31.1%). Type of assay: functional.
For assay [14], the system named is HeLa. Briefly: Induction of cell cycle arrest in human HeLa cells assessed as accumulation at S pahse at 10 uM incubated for 24 hrs by propidium iodide staining based flow cytometry (reference value: 40.5%). Type of assay: functional.
Assay [15] concerns HeLa. Description: Induction of cell cycle arrest in human HeLa cells assessed as accumulation at G2/M pahse at 10 uM incubated for 24 hrs by propidium iodide staining based flow cytometry (reference value: 28.4%). Type of assay: functional.
Assay [16] has as its system HeLa. Description: Induction of cell cycle arrest in human HeLa cells assessed as accumulation at G0/G1 phase at 20 uM incubated for 24 hrs by propidium iodide staining based flow cytometry (reference value: 31.1%). The format is functional.
Assay [17] has as its system HeLa. Description: Induction of cell cycle arrest in human HeLa cells assessed as accumulation at S pahse at 20 uM incubated for 24 hrs by propidium iodide staining based flow cytometry (reference value: 40.5%). Type of assay: functional.
For assay [18], the system named is HeLa. Briefly: Induction of cell cycle arrest in human HeLa cells assessed as accumulation at G2/M pahse at 20 uM incubated for 24 hrs by propidium iodide staining based flow cytometry (reference value: 28.4%). The format is functional.
For assay [19], the system named is HeLa. Briefly: Induction of apoptosis in human HeLa cells assessed as necrotic cells levels at 6 uM incubated for 72 hrs by annexin V-FITC and propidium iodide staining based flow cytometry (reference value: 0.2%). Type of assay: functional.
The subject of assay [20] is HeLa. Briefly: Induction of apoptosis in human HeLa cells assessed as late apoptotic cells levels at 6 uM incubated for 72 hrs by annexin V-FITC and propidium iodide staining based flow cytometry (reference value: 2.8%). The format is functional.
Assay [21] concerns HeLa. Description: Induction of apoptosis in human HeLa cells assessed as early apoptotic cells levels at 6 uM incubated for 72 hrs by annexin V-FITC and propidium iodide staining based flow cytometry (reference value: 1.4%). The format is functional.
The subject of a further assay is HCT-116. Description: Cytotoxicity against human HCT116 cells assessed as reduction in cell viability incubated for 72 hrs by SRB assay. As to conditions: HCT-116, 72 h. Type of assay: functional, cell-based.
Assay [22] deals with HeLa. Briefly: Cytotoxicity against human HeLa cells assessed as reduction in cell viability incubated for 72 hrs by SRB assay. The format is functional, cell-based.
A short description of assay [23]: Cytotoxicity against human SGC7901 cells assessed as reduction in cell viability incubated for 72 hrs by SRB assay. The format is functional, cell-based. The settings on record: SGC-7901, 72 h.

This note sets out measurements from ChEMBL document CHEMBL3596152, “Synthesis of 1-O-acetylbritannilactone analogues from Inula britannica and in vitro evaluation of their anticancer potential” (Medchemcomm, 2014).

Calls of active or inactive are those of the source. The rule behind the calls is not given here.

Usually IC50 stands for the concentration at which inhibition is half-maximal. `C=C1C(=O)O[C@@H]2CC(C)=C([C@@H](C)CCCOC(C)=O)[C@@H](OC(=O)c3ccccc3)[C@H]12`: the Activity entry with HeLa [1] was “Dose-dependent effect”; in the assay on HeLa [6] it was 3.9%; in the assay on HeLa [7] it was 6.9%; in the assay on HeLa [8], 0.3%; in the assay on HeLa [9], “Dose-dependent effect”; in the assay on HeLa [10], 29.5%. For the same molecule, the Activity in the assay with HeLa [11] is on record as 41.3%; in the assay with HeLa [12] it was 29.2%; in the assay with HeLa [13], 28.7%; in the assay on HeLa [14], 18.1%; with HeLa [15], 53.2%; with HeLa [16], 20.7%. For the same molecule, the Activity is reported as 15.6% with HeLa [17]; 63.7% with HeLa [18]; 3.5% in the assay on HeLa [19]; 30% in the assay with HeLa [20]; 4.5% with HeLa [21]. The outcome in the assay with HeLa [2] was inactive. Besides, the outcome in assay [3], in assay [4] and in assay [5] was Active. The IC50 worked out at 10.5 µM with HCT-116, 5.19 µM in the assay with HeLa [22] and 9.93 µM in [23].
